The values that follow come from patent US11685729B2, “C5a receptor modulators” (IDORSIA PHARMACEUTICALS LTD., priority 2018, dated 2023).

The target of the first experiment is C5AR1 (Homo sapiens (Human), UniProt P21730). As to the kind of experiment: In vitro assay: PathHunter beta-arrestin antagonist assay in CHO-K1 C5AR1 beta-arrestin cell line, stimulated with C5a agonist.
Chain of C5AR1 (P21730 whole entry): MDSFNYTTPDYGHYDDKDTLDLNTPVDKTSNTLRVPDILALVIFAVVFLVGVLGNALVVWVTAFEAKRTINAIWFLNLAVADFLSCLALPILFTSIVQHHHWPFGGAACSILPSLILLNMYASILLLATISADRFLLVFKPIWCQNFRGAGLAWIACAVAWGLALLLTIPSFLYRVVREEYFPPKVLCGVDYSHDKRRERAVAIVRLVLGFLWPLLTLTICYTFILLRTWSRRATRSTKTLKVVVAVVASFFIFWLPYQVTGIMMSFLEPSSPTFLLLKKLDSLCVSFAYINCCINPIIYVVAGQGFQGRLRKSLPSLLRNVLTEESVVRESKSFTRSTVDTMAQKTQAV
Details: not given
In turn, `Cc1cccc(F)c1N1CCC(N2Cc3ccccc3N(Cc3nnccc3OC(C)C)C2=O)CC1` [Example 80, 3-[1-(2-Fluoro-6-methyl-phenyl)-piperidin-4-yl]-1-(4-isopropoxy-pyridazin-3-ylmethyl)-3,4-dihydro-1H-quinazolin-2-one] gave an IC50 of 1.79 µM.

Still in this experiment, the particulars now being: read-out: C5aR IC50; CHO-K1 C5AR1 beta-arrestin cell line; 1-10 nM C5a agonist; geometric mean values.
As for `COc1cccc(C)c1N1CC[C@@H](N2Cc3cccc(OC)c3N(Cc3ccccc3C(F)(F)F)C2=O)C1` [Example 22, 8-Methoxy-3-[(R)-1-(2-methoxy-6-methyl-phenyl)-pyrrolidin-3-yl]-1-(2-trifluoromethyl-benzyl)-3,4-dihydro-1H-quinazolin-2-one], the IC50 stood at 0.052 µM.
As for `Cc1cccc(F)c1N1CCC(N2Cc3ccccc3N(Cc3ccccc3OC3CCC3)C2=O)CC1` [Example 52, 1-(2-Cyclobutoxy-benzyl)-3-[1-(2-fluoro-6-methyl-phenyl)-piperidin-4-yl]-3,4-dihydro-1H-quinazolin-2-one], the IC50 is 0.069 µM.
On to `Cc1cccc(F)c1N1CCC(N2Cc3nccnc3N(Cc3ccccc3C(F)(F)F)C2=O)CC1` [Example 58, 3-[1-(2-Fluoro-6-methyl-phenyl)-piperidin-4-yl]-1-(2-trifluoromethyl-benzyl)-3,4-dihydro-1H-pteridin-2-one], for which the IC50 was 0.021 µM.
The same measure, in the same setting: under `COc1cccc(C)c1N1CC[C@@H](N2Cc3ccccc3N(Cc3ccccc3C(F)(F)F)C2=O)C1` [Example 27, 3-[(R)-1-(2-Methoxy-6-methyl-phenyl)-pyrrolidin-3-yl]-1-(2-trifluoromethyl-benzyl)-3,4-dihydro-1H-quinazolin-2-one] stands 0.037 µM; under `Cc1cccc(F)c1N1CCC(N2Cc3ccccc3N(Cc3ccccc3OC3CC3)C2=O)CC1` [Example 68, 1-(2-Cyclopropoxy-benzyl)-3-[1-(2-fluoro-6-methyl-phenyl)-piperidin-4-yl]-3,4-dihydro-1H-quinazolin-2-one], 0.066 µM; under `Cc1cccc(F)c1N1CCC(N2Cc3ccccc3N(Cc3ncccc3OC(C)C)C2=O)CC1` [Example 60, 3-[1-(2-Fluoro-6-methyl-phenyl)-piperidin-4-yl]-1-(3-isopropoxy-pyridin-2-ylmethyl)-3,4-dihydro-1H-quinazolin-2-one], 0.028 µM.
Same read-out and setting: under `Cc1cccc(F)c1N1CCC(N2Cc3ccccc3N(Cc3ccccc3OC3CCOCC3)C2=O)CC1` [Example 53, 3-[1-(2-Fluoro-6-methyl-phenyl)-piperidin-4-yl]-1-[2-(tetrahydro-pyran-4-yloxy)-benzyl]-3,4-dihydro-1H-quinazolin-2-one] stands 0.032 µM.
As for `COc1nccc(C)c1N1CCC(N2Cc3ccccc3N(Cc3ccccc3C(F)(F)F)C2=O)CC1` [Example 29, 3-(2′-Methoxy-4′-methyl-3,4,5,6-tetrahydro-2H-[1,3′]bipyridinyl-4-yl)-1-(2-trifluoromethyl-benzyl)-3,4-dihydro-1H-quinazolin-2-one], the concentration for half-maximal inhibition (IC50) stood at 0.035 µM.
For the compound `Cc1nc(C(F)(F)F)c(CN2C(=O)N(C3CCN(c4c(C)cccc4F)CC3)Cc3ccccc32)s1` [Example 83, 3-[1-(2-Fluoro-6-methyl-phenyl)-piperidin-4-yl]-1-(2-methyl-4-trifluoromethyl-thiazol-5-ylmethyl)-3,4-dihydro-1H-quinazolin-2-one], the half-inhibitory concentration (IC50) was 1.32 µM.
As to `COc1ccccc1CN1C(=O)N([C@@H]2CCN(c3c(C)cccc3C)C2)Cc2ccccc21` [Example 34, 3-[(R)-1-(2,6-Dimethyl-phenyl)-pyrrolidin-3-yl]-1-(2-methoxy-benzyl)-3,4-dihydro-1H-quinazolin-2-one], the 50% inhibitory concentration (IC50) amounted to 0.116 µM.
The same measure, in the same setting: the value for `Cc1cccc(F)c1N1CCC(N2Cc3ccccc3N(Cc3ccccc3OCC3CC3)C2=O)CC1` [Example 54, 1-(2-Cyclopropylmethoxy-benzyl)-3-[1-(2-fluoro-6-methyl-phenyl)-piperidin-4-yl]-3,4-dihydro-1H-quinazolin-2-one] was 0.066 µM.
In the case of `COc1nccnc1CN1C(=O)N(C2CCN(c3c(C)cccc3F)CC2)Cc2ccccc21` [Example 43, 3-[1-(2-Fluoro-6-methyl-phenyl)-piperidin-4-yl]-1-(3-methoxy-pyrazin-2-ylmethyl)-3,4-dihydro-1H-quinazolin-2-one], the 50% inhibitory concentration (IC50) amounted to 0.299 µM.
Consider `Cc1cccc(F)c1N1CCC(N2Cc3ccccc3N(C(C)c3ccccc3C(F)(F)F)C2=O)CC1` (stereo not shown) [Example 45, 3-[1-(2-Fluoro-6-methyl-phenyl)-piperidin-4-yl]-1-[1-(2-trifluoromethyl-phenyl)-ethyl]-3,4-dihydro-1H-quinazolin-2-one], for which the IC50 stood at 0.191 µM.
Take `Cc1cccc(F)c1N1CCC(N2Cc3ccccc3N(Cc3ccccc3OCCN(C)C)C2=O)CC1` [Example 47, 1-[2-(2-Dimethylamino-ethoxy)-benzyl]-3-[1-(2-fluoro-6-methyl-phenyl)-piperidin-4-yl]-3,4-dihydro-1H-quinazolin-2-one]: the half-maximal inhibitory concentration (IC50) was determined as 1.66 µM.
On the same count and under the same terms, under `COc1ccccc1N1CCC(N2Cc3ccccc3N(Cc3ccccc3C(F)(F)F)C2=O)CC1` [Example 6, 3-[1-(2-Methoxy-phenyl)-piperidin-4-yl]-1-(2-trifluoromethyl-benzyl)-3,4-dihydro-1H-quinazolin-2-one] stands 0.245 µM; under `Cc1cccc(F)c1N1CCC(N2Cc3ccccc3N(Cc3cccnc3C(F)(F)F)C2=O)CC1` [Example 65, 3-[1-(2-Fluoro-6-methyl-phenyl)-piperidin-4-yl]-1-(2-trifluoromethyl-pyridin-3-ylmethyl)-3,4-dihydro-1H-quinazolin-2-one], 0.067 µM; under `COc1ccccc1N1CC[C@H](N2Cc3ccccc3N(Cc3ccccc3C(F)(F)F)C2=O)C1` [Example 16, 3-[(S)-1-(2-Methoxy-phenyl)-pyrrolidin-3-yl]-1-(2-trifluoromethyl-benzyl)-3,4-dihydro-1H-quinazolin-2-one], 0.635 µM.
`Cc1ccnc(F)c1N1CCC(N2Cc3ccccc3N(Cc3ccccc3C(F)(F)F)C2=O)CC1` [Example 30, 3-(2′-Fluoro-4′-methyl-3,4,5,6-tetrahydro-2H-[1,3′]bipyridinyl-4-yl)-1-(2-trifluoromethyl-benzyl)-3,4-dihydro-1H-quinazolin-2-one]: the IC50 turned out to be 0.045 µM.
Regarding `COc1cccc(OC)c1N1CC[C@@H](N2Cc3cccc(OC)c3N(Cc3ccccc3C(F)(F)F)C2=O)C1` [Example 24, 3-[(R)-1-(2,6-Dimethoxy-phenyl)-pyrrolidin-3-yl]-8-methoxy-1-(2-trifluoromethyl-benzyl)-3,4-dihydro-1H-quinazolin-2-one], the 50% inhibitory concentration (IC50) came out at 0.383 µM.
Still for that read-out and setting: under `Cc1cccc(F)c1N1CCC(N2Cc3ccccc3N(Cc3nccnc3OC(C)C)C2=O)CC1` [Example 59, 3-[1-(2-Fluoro-6-methyl-phenyl)-piperidin-4-yl]-1-(3-isopropoxy-pyrazin-2-ylmethyl)-3,4-dihydro-1H-quinazolin-2-one] stands 0.038 µM.
On to `Cc1ccnc(C)c1N1CCC(N2Cc3ccccc3N(Cc3ccccc3C(F)(F)F)C2=O)CC1` [Example 28, 3-(2′,4′-Dimethyl-3,4,5,6-tetrahydro-2H-[1,3′]bipyridinyl-4-yl)-1-(2-trifluoromethyl-benzyl)-3,4-dihydro-1H-quinazolin-2-one], for which the IC50 amounted to 0.287 µM.
The same measure, in the same setting: the value for `COc1ccccc1C(C)N1C(=O)N(C2CCN(c3c(C)cccc3F)CC2)Cc2ccccc21` (stereo not shown) [Example 40, 3-[1-(2-Fluoro-6-methyl-phenyl)-piperidin-4-yl]-1-[1-(2-methoxy-phenyl)-ethyl]-3,4-dihydro-1H-quinazolin-2-one] was 0.135 µM; that for `O=C1N(Cc2ccccc2C(F)(F)F)c2ccccc2CN1[C@H]1CCN(c2c(F)cccc2F)C1` [Example 15, 3-[(S)-1-(2,6-Difluoro-phenyl)-pyrrolidin-3-yl]-1-(2-trifluoromethyl-benzyl)-3,4-dihydro-1H-quinazolin-2-one] was 0.847 µM.
On to `Cc1cccc(F)c1N1CCC(N2Cc3ccccc3N(Cc3ccccc3OC(C)C)C2=O)CC1` [Example 44, 3-[1-(2-Fluoro-6-methyl-phenyl)-piperidin-4-yl]-1-(2-isopropoxy-benzyl)-3,4-dihydro-1H-quinazolin-2-one], for which the IC50 worked out at 0.033 µM.
The same measure, in the same setting: the value for `COc1cccc2c1N(Cc1ccccc1C(F)(F)F)C(=O)N([C@@H]1CCN(c3c(F)cccc3F)C1)C2` [Example 8, 3-[(R)-1-(2,6-Difluoro-phenyl)-pyrrolidin-3-yl]-8-methoxy-1-(2-trifluoromethyl-benzyl)-3,4-dihydro-1H-quinazolin-2-one] was 0.104 µM; that for `Cc1cccc(F)c1N1CCC(N2Cc3nnccc3N(Cc3ccccc3C(F)(F)F)C2=O)CC1` [Example 66, 7-[1-(2-Fluoro-6-methyl-phenyl)-piperidin-4-yl]-5-(2-trifluoromethyl-benzyl)-7,8-dihydro-5H-pyrimido[5,4-c]pyridazin-6-one] was 1.92 µM.
The same measure, in the same setting: under `O=C1N(Cc2ccccc2C(F)(F)F)c2ccccc2CN1[C@@H]1CCN(c2c(F)cccc2F)C1` [Example 19, 3-[(R)-1-(2,6-Difluoro-phenyl)-pyrrolidin-3-yl]-1-(2-trifluoromethyl-benzyl)-3,4-dihydro-1H-quinazolin-2-one] stands 0.053 µM; under `O=C1N(Cc2ccccc2C(F)(F)F)c2ccccc2CN1C1CCN(c2c(F)cccc2C(F)(F)F)CC1` [Example 76, 3-[1-(2-Fluoro-6-trifluoromethyl-phenyl)-piperidin-4-yl]-1-(2-trifluoromethyl-benzyl)-3,4-dihydro-1H-quinazolin-2-one], 0.05 µM; under `COC(=O)C(c1ccccc1OC)N1C(=O)N(C2CCN(c3c(C)cccc3F)CC2)Cc2ccccc21` (stereo not shown) [Example 49, {3-[1-(2-Fluoro-6-methyl-phenyl)-piperidin-4-yl]-2-oxo-3,4-dihydro-2H-quinazolin-1-yl}-(2-methoxy-phenyl)-acetic acid methyl ester], 0.102 µM.
The same measure, in the same setting: under `Cc1cccc(F)c1N1CCC(N2C(=O)N(Cc3ccccc3C(F)(F)F)c3ccccc3C2C)CC1` (racemic) [Example 70, 3-[1-(2-Fluoro-6-methyl-phenyl)-piperidin-4-yl]-4-methyl-1-(2-trifluoromethyl-benzyl)-3,4-dihydro-1H-quinazolin-2-one] stands 0.205 µM.
